{
  "source": "patent US7968124B2",
  "about": "“Compositions for the reversal and detoxification of anesthetics and other compounds and methods of their use” (Lyotropic Therapeutics, Inc., priority 2004, dated 2011)",
  "key": {"[1]": {"test": "Binding of strontium ions to cubic phase particles (precipitation, centrifugation)", "format": "physicochemical", "conditions": "18.9 mM strontium chloride added to RA5-15E; immediate precipitation, centrifuged to the bottom", "excerpt": "A high degree of binding of strontium ions to the phosphatidylcholine in RA5-15E was evidenced by the immediate precipitation of the cubic phase, which centrifuged to the bottom of the dispersion. Were the heavy strontium ions not bound, the cubic phase would be less dense than water and would have centrifuged to the top of the dispersion, as is the usual case with other methods of precipitating the particles. Radiostrontium, and to a lesser extent strontium, have known toxic effects, as do related phosphatidylcholine-binding metals. More broadly, this Example illustrates how the effect of large bilayer surface areas in cubic phase particles can result in effective uptake of toxins that bind to bilayer components."}, "[2]": {"test": "Solubility of drugs in soy oil, water, tocopherol and PC/tocopherol/water cubic phase", "experimental": "Methanol and dichloromethane were particularly effective for this purpose. After solubilizing the compound and soy oil or tocopherol together with the common solvent, the common solvent was then evaporated using a rotovap. At the resulting concentration of the compound in soy oil or tocopherol, the sample was monitored over approximately 4 weeks for any sign of precipitation, using centrifugation and microscopy; the microscopy was performed using a combination of Differential Interference Contrast (DIC), transmitted dark field, and polarizing modes."}, "[3]": {"test": "Uptake of toxin into particles, centrifuge filter separation and HPLC: etomidate", "conditions": "etomidate in the absence of albumin"}, "[4]": {"test": "Partition of amphotericin B between PC/alpha-tocopherol/water cubic phase and water (HPLC)", "format": "physicochemical", "procedure": "Amphotericin B provides an example of an API with high toxicity which has a site of action in the interior of a fungal lipid biomembrane.\nAn amount 0.0082 g of Amphotericin B and 0.8 mL of DMSO (dimethylsulfoxide) were added to a 16 mL test tube. The test tube was heated to 60° C. until the amphotericin B was completely dissolved. An amount 0.692 g of 2.5% DMPG in the phosphatidylcholine product Lipoid E80, 0.8 mL of DMSO, and 0.6 mL of ethanol were added to a second 16 mL test tube. The mixture was heated to 60° C. and vortexed until the Lipoid E80/DMPG was entirely dissolved. An amount 0.6873 g of vitamin E and 0.8 mL of DMSO were added to a third 16 mL test tube. The mixture was heated to 60° C. and vortexed until the vitamin E was completely dissolved. The contents of the second and third test tubes were added to the first test tube containing the amphotericin B and DMSO mixture. The test tube containing the entire mixture was heated to 60° C. for 30 minutes to ensure that all components were completely dissolved.\nAn amount of 10 mL of deionized water was added to the test tube. The test tube was gently shaken at 40 RPM for 30 minutes on a Lab-Line Junior Orbit Shaker. The aqueous portion was decanted and filtered through Aldrich medium speed filter paper into a clean test tube and labeled “wash 1”. This washing procedure was repeated three additional times to obtain “wash 2”, “wash 3”, and “wash 4”.\nHPLC analysis was then performed to determine the amphotericin B concentrations in the 4 wash solutions and the final, quadruply-washed cubic phase. […] In contrast, the amphotericin B concentrations in the “wash 3” and “wash 4” solutions were both approximately 0.0035 mg/mL, thus making the partition coefficient on the order of 1,000."}, "[5]": {"test": "Effective partition coefficients of local anesthetics into Example 10 dispersions in the presence of albumin", "conditions": "dispersions and methods of Example 10, RA5-15E dispersion named"}, "[6]": {"tested_on": "bupivacaine cardiotoxicity", "test": "Rescue in rat model with normally-lethal intravenous injection of bupivacaine", "format": "in vivo", "conditions": "rats, 12 mg/Kg intravenously, all animals", "procedure": "The RA5-5E and RA5-15E dispersions prepared in Example 10 were subsequently tested in vivo as a rescue agent in a rat model incorporating a normally-lethal intravenous injection of bupivacaine. Twelve adult male rats were randomly arranged into three groups of four animals each. Animals in each group were given a known lethal dose (12 mg/Kg) of the amide local anesthetic bupivacaine intravenously. Each animal was monitored for signs of acute cardiotoxicity. All animals became pulseless within 10 seconds of the injection of bupivacaine. When each animal became pulseless, it was treated immediately with mild chest compression and with one of the following: (i) 4 ml/Kg normal physiologic saline (Group A); (ii) 4 ml/Kg of dispersion RA5-15E of the instant invention with a 15 percent particle concentration (Group B); or, (iii) 6 ml/Kg of dispersion RA5-5E of the instant invention with a 5.6 percent particle concentration (Group C). […] The administration of the dispersion according to the instant invention rescued the animals from death due to the systemic toxicity of an overdose of a common local anesthetic agent."}, "[7]": {"conditions": "pH 7.4; cited from earlier work"}, "[8]": {"conditions": "intravenous doses as high as 30 mg/Kg/day; cited from earlier work"}, "[9]": {"test": "Partitioning of vecuronium bromide between phosphatidylcholine/tocopherol/water reversed cubic phase and water (HPLC)", "format": "physicochemical", "procedure": "In this Example, the partitioning of the quaternary ammonium skeletal muscle relaxant vecuronium bromide, a water-soluble compound with a low octanol-water partition coefficient, between a phosphatidylcholine/tocopherol/water reversed cubic phase and water is measured, and found to be very high, sufficiently high as to enable the use of the invention in attenuating the effect of the drug in the body of a mammal. An amount 0.6169 gm of phosphatidylcholine (Phospholipon 90G, from Phospholipid GmbH) was mixed with 0.6730 gm of alpha-tocopherol and 0.2194 gm of a 10% vecuronium bromide solution in water. An amount 1.1226 gm of this mixture was smeared onto the inner wall of a test tube, and 6.4495 gm of water added to the tube so as to contact the mixture. Upon swelling with water, the mixture became a reversed cubic phase. […] The partition coefficient between cubic phase and water was thus approximately 1,600 (or log KQW=3.2). […] One with ordinary skill in the art will recognize that the vecuronium mass balance checks correctly if one assumes that the water content of the final cubic phase, after swelling to equilibrium, is approximately 40%, which is in perfect accord with the phase diagram derived in this laboratory for this cubic phase region."}, "[10]": {"conditions": "oil or lipid, Solubility in soy oil"}},
  "note": "Read-outs that look alike come from different tables or passages of the source.",
  "data": [
    {"molecule": "[Cl-].[Cl-].[Sr+2]", "note": "[strontium ions, strontium chloride]", "values": [
      {"measurement": "binding of strontium ions to cubic phase particles", "setting": "[1]", "value": "strong binding"}
    ]},
    {"molecule": "CCC(C)n1ncn(-c2ccc(N3CCN(c4ccc(OCC5COC(Cn6cncn6)(c6ccc(Cl)cc6Cl)O5)cc4)CC3)cc2)c1=O", "note": "(stereo not shown) [Itraconazole]", "values": [
      {"measurement": "solubility", "setting": "[2]; soy oil, oil or lipid", "value": "< 500", "unit": "µg/mL"},
      {"measurement": "solubility", "setting": "[2]; water", "value": 0.001, "unit": "µg/mL"}
    ]},
    {"molecule": "CCOC(=O)c1cncn1[C@H](C)c1ccccc1", "note": "[Etomidate]", "values": [
      {"measurement": "solubility", "setting": "physchem; oil or lipid, Solubility in cubic phase with tocopherol, approx. 34% phosphatidylcholine, 31% tocopherol plus compound, 35% water", "value": 105, "unit": "mg/mL"},
      {"measurement": "solubility", "setting": "physchem; [10]", "value": 80, "unit": "mg/mL"},
      {"measurement": "solubility", "setting": "physchem; oil or lipid, Solubility in tocopherol", "value": 200, "unit": "mg/mL"},
      {"measurement": "solubility", "setting": "physchem; water, Solubility in Water", "value": "4.5e-05", "unit": "mg/mL"},
      {"measurement": "effective partition coefficient", "setting": "[3]", "value": 309}
    ]},
    {"molecule": "C[C@@H]1[C@H](O)[C@@H](C)/C=C/C=C/C=C/C=C/C=C/C=C/C=C/[C@H](O[C@@H]2O[C@H](C)[C@@H](O)[C@H](N)[C@@H]2O)C[C@@H]2O[C@](O)(C[C@@H](O)C[C@@H](O)[C@H](O)CC[C@@H](O)C[C@@H](O)CC(=O)O[C@H]1C)C[C@H](O)[C@H]2C(=O)O", "note": "[amphotericin B]", "values": [
      {"measurement": "concentration in \"wash 3\" and \"wash 4\" solutions", "setting": "[4]", "value": "approximately 0.0035 mg/mL"},
      {"measurement": "true concentration in the cubic phase itself, estimated", "setting": "[4]; corrected for entrapped water", "value": "approximately 3 mg/mL"},
      {"measurement": "concentration in quadruply-washed cubic phase (HPLC)", "setting": "[4]; cubic phase with entrapped pockets of water", "value": 1760, "unit": "µg/mL"}
    ]},
    {"molecule": "CCOC(=O)c1ccc(N)cc1", "note": "[benzocaine]", "values": [
      {"measurement": "effective partition coefficient", "setting": "[5]", "value": 148}
    ]},
    {"molecule": "CCCCN1CCCCC1C(=O)Nc1c(C)cccc1C", "note": "(stereo not shown) [bupivacaine]", "values": [
      {"measurement": "time to pulselessness after injection", "setting": "[6]", "value": "≤ 10", "unit": "s"},
      {"measurement": "effective partition coefficient", "setting": "[5]", "value": 62},
      {"measurement": "octanol-water coefficient", "setting": "[7]", "value": "greater than 1,000"}
    ]},
    {"molecule": "COc1c(C)c2c(c(O)c1C/C=C(\\C)CCC(=O)OCCN1CCOCC1)C(=O)OC2", "note": "[Mycophenolate mofetil]", "values": [
      {"measurement": "solubility", "setting": "[2]; soy oil, oil or lipid", "value": 3000, "unit": "µg/mL"},
      {"measurement": "solubility", "setting": "[2]; tocopherol, oil or lipid", "value": 200000, "unit": "µg/mL"},
      {"measurement": "solubility", "setting": "[2]; water", "value": 39, "unit": "µg/mL"}
    ]},
    {"molecule": "CC(=O)O[C@H]1C(=O)[C@@]2(C)[C@H]([C@H](OC(=O)c3ccccc3)[C@]3(O)C[C@H](OC(=O)[C@H](O)[C@@H](NC(=O)c4ccccc4)c4ccccc4)C(C)=C1C3(C)C)[C@]1(OC(C)=O)CO[C@@H]1C[C@@H]2O", "note": "[Paclitaxel]", "values": [
      {"measurement": "solubility", "setting": "physchem; oil or lipid, Solubility in cubic phase with spearmint oil in place of tocopherol", "value": 42, "unit": "mg/mL"},
      {"measurement": "solubility", "setting": "physchem; [10]", "value": "< 0.1", "unit": "mg/mL"},
      {"measurement": "solubility", "setting": "physchem; oil or lipid, Solubility in spearmint oil (used in place of tocopherol)", "value": 100, "unit": "mg/mL"}
    ]},
    {"molecule": "tocopherol", "values": [
      {"measurement": "adverse effects of intravenous doses", "setting": "[8]", "value": "essentially free from any adverse effects"}
    ]},
    {"molecule": "CC(=O)O[C@H]1C[C@@H]2CC[C@@H]3[C@H](CC[C@@]4(C)[C@H]3C[C@H]([N+]3(C)CCCCC3)[C@@H]4OC(C)=O)[C@@]2(C)C[C@@H]1N1CCCCC1", "note": "[vecuronium bromide]", "values": [
      {"measurement": "log KQW", "setting": "[9]", "value": 3.2},
      {"measurement": "partition coefficient between cubic phase and water", "setting": "[9]", "value": "approximately 1,600"},
      {"measurement": "concentration in the aqueous phase", "setting": "[9]; after 3 days of contact", "value": 6, "unit": "µg/mL"},
      {"measurement": "concentration in the cubic phase", "setting": "[9]; after 3 days of contact", "value": 10000, "unit": "µg/mL"},
      {"measurement": "log KQW", "setting": "[9]; anionic lipid content increased by incorporating a bile salt", "value": "approximately 4"},
      {"measurement": "cubic phase-water partition coefficient", "setting": "[9]; for at least some cubic phases of use in the invention", "value": "above 1,000"}
    ]}
  ]
}
